According to patent US20160115200A1, “New Use for JNK Inhibitor Molecules for Treatment of Various Diseases” (XIGEN INFLAMMATION LTD., priority 2013, published 2016):
Square brackets hold non-standard residues; d marks the D form. Peptide text beside a SMILES is read from it.

Tests used:
[1] = system: mouse model of scopolamine-induced dry eye; test: Scopolamine-induced dry eye in mice (TBUT, PRTT, histopathology); assay type: in vivo; conditions: for TBUT mean nadir: TID topical ocular
Description: The objective of this study was to assess the effects of two different compounds, the all-D-retro-inverso JNK-inhibitor (poly-)peptide of SEQ ID NO: 197 and the JNK inhibitor (poly-)peptide of SEQ ID NO: 172, at three dose levels in a mouse model of scopolamine-induced dry eye.
The study consisted of a total of 9 groups of female C57BL/6 mice, comprising 8 groups of 12 mice each and an additional group of 4 mice. Bilateral short-term dry eye was induced by a combination of scopolamine hydrobromide (Sigma-Aldrich Corp., St. Louis, Mo.) injection (subcutaneous (SC), four times daily, 0.5 mg/dose, Days 0-21) and by exposing mice to the drying environment of constant air draft. […] Mice of Group 9 were maintained as un-induced, (no dry eye) untreated controls.
During the in-life (treatment) period, clinical observations were recorded once daily; slit-lamp examination (SLE) with corneal fluorescein staining, tear break-up time test (TBUT), and phenol red thread test (PRTT) were performed three times per week. Necropsies were performed on Day 22; eyes, eye lids, conjunctivae, and lacrimal glands were collected from both eyes of each animal. Tissues from the right eyes (oculus dexter, OD) were fixed and then evaluated microscopically. Tissues from the left eyes (oculus sinister; OS) were flash-frozen in liquid nitrogen and stored frozen at −80° C. for possible subsequent analyses.
The TBUT test was conducted three times weekly by measuring the time elapsed in seconds between a complete blink after application of fluorescein to the cornea and the appearance of the first random dry spot in the tear film. […] At least ninety seconds later, corneal epithelial damage was graded using a slit-lamp with a cobalt blue filter after another drop of 0.1% fluorescein was reapplied to the cornea; the cornea then was scored per the Draize ocular scale.
Tear production was measured three times a week in both eyes using PRTT test strips (Zone-Quick; Menicon, Nagoya, Japan). Prior to the first treatment of the day, a thread was applied to the lateral canthus of the conjunctival fornix of each eye for 30 seconds under slit-lamp biomicroscopy. Tear migration up the tread (i.e., the length of the wetted cotton thread) was measured using a millimeter scale.
At necropsy on Day 22, both eyes from each animal, including the globes, lacrimal glands, eyelids, and conjunctivae, were excised. The right eye and associated tissues were fixed by overnight submersion in modified Davidson's solution followed by transfer to 10% neutral buffered formalin (NBF). The fixed tissues of the right eye were dehydrated, embedded in paraffin, sectioned at 3 to 5-μm thicknesses, and slide-mounted tissues were stained with hematoxylin and eosin (H & E). Stained slides were evaluated via light microscopy. Detailed and complete histopathologic assessment was conducted on all parts of the eye, with at least two section levels being examined histopathologically for each right eye. Special attention was paid to the cornea, epithelia (including goblet cells) of the conjunctiva and cornea, as well as the lacrimal gland. These tissues were scored for injury based upon a 0-4 scale, with 0 being normal, 1 being minimal, 2 being mild, 3 being moderate, and 4 being severe. For each cornea, scores were based on corneal epithelium thickness, and corneal inflammation. Conjunctivae were scored for erosion and inflammation as well as presence or absence of goblet cells.

[2] = system: established type II collagen arthritis in rats
[3] = system: endotoxins-induced uveitis albino rat model; test: Endotoxins-induced uveitis (EIU), single intravenous injection, clinical scoring 24 h after LPS; assay type: in vivo; parameters: key to EIU clinical score, median: clinical score per eye, 0 to 4 scale; conditions: for EIU clinical score, mean±SEM / EIU clinical score, median: 24 hours after LPS
Description: The aim of this study was to determine the effects of single intravenous injections of SEQ ID NO: 172 (0.015, 0.18, and 1.80 mg/kg) on the inflammatory response in an endotoxins-induced uveitis albino rat model and to compare these affects to those obtained with prior art JNK inhibitor of SEQ ID NO: 197 (2 mg/kg). As a further control served phosphate sodic dexamethasone.
Sixty (60) male Lewis rats were randomly divided into six (6) groups of ten (10) animals each. EIU was induced by footpad injection of lipopolysaccharide (LPS, 1 mg/kg). NaCl (0.9%), SEQ ID NO: 197 at 2 mg/kg and SEQ ID NO: 172 at three concentrations (1.80 mg/kg, 0.18 mg/kg and 0.015 mg/kg) were administered by intravenous injection. Phosphate sodic dexamethasone (20 μg/eye) was administered by sub-conjunctival injection in both eyes. 24 hours after LPS injection, inflammatory response was evaluated by clinical scoring.
The intensity of clinical ocular inflammation was scored on a scale from 0 to 4 for each eye: […]

[4] = SEQ ID NO: 172 0.01-5 mg/kg IV QD

CC(C)C[C@H](NC(=O)[C@H](CC(N)=O)NC(=O)[C@H](CC(C)C)NC(=O)[C@@H](NC(=O)[C@@H](C)NC(=O)[C@@H]1CCCN1C(=O)[C@H](CCCNC(=N)N)NC(=O)[C@@H](CCCCN)NC(=O)[C@@H]1CCCN1C(=O)[C@H](CCCNC(=N)N)NC(=O)[C@@H](CCCNC(=N)N)NC(=O)[C@H](CCCNC(=N)N)NC(=O)[C@H](CCCNC(=N)N)NC(=O)[C@H](CCC(N)=O)NC(=O)[C@@H](CCCNC(=N)N)NC(=O)[C@H](CCCNC(=N)N)NC(=O)[C@H](CCCCN)NC(=O)[C@H](CCCCN)NC(=O)[C@H](N)CCCNC(=N)N)[C@@H](C)O)C(=O)N[C@H](Cc1ccccc1)C(N)=O [SEQ ID NO: 172, rKKRrQRRrRPkRPaTLNLf] (H-[dR]KKR[dR]QRR[dR]RP[dK]RP[dA]TLNL[dF]-NH2)
TBUT mean nadir ([1]; Day 7, high-dose 0.6% (Group 7)): 6.7 ± 0.3 s
TBUT mean nadir ([1]; Day 7, low-dose 0.05% (Group 5)): 6.6 ± 0.4 s
TBUT mean nadir ([1]; Day 7, mid-dose 0.2% (Group 6)): 6.7 ± 0.4 s
TBUT mean peak ([1]; Day 9, high-dose 0.6% (Group 7)): 9.9 ± 0.8 s
TBUT mean peak ([1]; Day 9, low-dose 0.05% (Group 5)): 8.0 ± 0.4 s
TBUT mean peak ([1]; Day 9, mid-dose 0.2% (Group 6)): 10.0 ± 0.7 s
PRTT, aqueous tear production compared with cyclosporine ([1]; Day 21, mid and high-dose (Groups 6 and 7)): therapeutic effects similar to cyclosporine
TBUT means compared with vehicle group ([1]; low, medium and high-dose, Groups 2, 3 and 4): above the vehicle group
aqueous tear production (PRTT) compared with vehicle ([1]; low, mid or high-dose SEQ ID NO: 172): significantly more aqueous tears compared to vehicle-treated animals
histological cornea scores compared with cyclosporine group ([1]; mid and high-dose SEQ ID NO: 172 (Groups 6, 7), high-dose SEQ ID NO: 197 (Group 4)): not significantly different than the cyclosporine group scores
daily ankle diameter measurements vs disease controls ([2]; 5 mg/kg IV QD, p<0.05 days 4-12): significantly (p<0.05 by 2-way RM ANOVA) reduced toward normal
adverse effect on organ weights ([2]; IV QD days 1-14): no adverse effect on organ weights
relative spleen weights [2, 4]: not significantly affected
relative thymus weights [2, 4]: not significantly affected
EIU clinical score, mean±SEM ([3]; 0.015 mg/kg i.v.): 2.3±0.3
EIU clinical score, median ([3]; 0.015 mg/kg i.v.): 2
EIU clinical score, mean±SEM ([3]; 0.18 mg/kg i.v.): 2.4±0.3
EIU clinical score, median ([3]; 0.18 mg/kg i.v.): 2
EIU clinical score, mean±SEM ([3]; 1.80 mg/kg i.v.): 2.1±0.3
EIU clinical score, median ([3]; 1.80 mg/kg i.v.): 2
endotoxin-induced inflammation in the anterior chamber ([3]; intravenously injected at 0.015, 0.18, 1.80 mg/kg): also reduced the endotoxin-induced inflammation in the anterior chamber
